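Five compound concentrations were applied to cells in 96-well plates for 48 hours; endpoints were derived by simple linear interpolation of the resulting dose-response curve. TGI denotes the concentration required for complete inhibition of growth.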
Key:
Assay in all cases: NCI anticancer screen, dose series, 48 h
PC-3 prostate = test system: PC-3 prostate
OVCAR-3 ovarian = test system: OVCAR-3 ovarian
HL-60(TB) leukemia = test system: HL-60(TB) leukemia
OVCAR-4 ovarian = test system: OVCAR-4 ovarian
OVCAR-5 ovarian = test system: OVCAR-5 ovarian
NCI/ADR-RES ovarian = test system: NCI/ADR-RES ovarian
TK-10 renal = test system: TK-10 renal
CAKI-1 renal = test system: CAKI-1 renal
DU-145 prostate = test system: DU-145 prostate
MOLT-4 leukemia = test system: MOLT-4 leukemia
NCI-H522 lung = test system: NCI-H522 lung
MALME-3M melanoma = test system: MALME-3M melanoma
RPMI-8226 leukemia = test system: RPMI-8226 leukemia
HOP-62 NSCLC = test system: HOP-62 NSCLC
SN12C renal = test system: SN12C renal
KM12 colon = test system: KM12 colon
HT29 colon = test system: HT29 colon
SW-620 colon = test system: SW-620 colon
SNB-75 CNS = test system: SNB-75 CNS
SK-MEL-2 melanoma = test system: SK-MEL-2 melanoma
LOX IMVI melanoma = test system: LOX IMVI melanoma
SR leukemia = test system: SR leukemia
RXF 393 renal = test system: RXF 393 renal
CCRF-CEM leukemia = test system: CCRF-CEM leukemia
UACC-62 melanoma = test system: UACC-62 melanoma
ACHN renal = test system: ACHN renal
SF-268 CNS = test system: SF-268 CNS
BT-549 breast = test system: BT-549 breast
HCT-15 colon = test system: HCT-15 colon
MDA-N = test system: MDA-N
OVCAR-8 ovarian = test system: OVCAR-8 ovarian
NCI-H226 lung = test system: NCI-H226 lung
SF-295 CNS = test system: SF-295 CNS
SK-MEL-28 melanoma = test system: SK-MEL-28 melanoma
NCI-H460 lung = test system: NCI-H460 lung
MDA-MB-435 = test system: MDA-MB-435
U251 CNS = test system: U251 CNS
EKVX NSCLC = test system: EKVX NSCLC
UO-31 renal = test system: UO-31 renal
K-562 leukemia = test system: K-562 leukemia
HOP-92 NSCLC = test system: HOP-92 NSCLC
IGROV1 ovarian = test system: IGROV1 ovarian
M14 melanoma = test system: M14 melanoma
SK-MEL-5 melanoma = test system: SK-MEL-5 melanoma
UACC-257 melanoma = test system: UACC-257 melanoma
NCI-H23 lung = test system: NCI-H23 lung
SNB-19 CNS = test system: SNB-19 CNS
MDA-MB-231 breast = test system: MDA-MB-231 breast
A549 NSCLC = test system: A549 NSCLC
786-0 renal = test system: 786-0 renal
HCT-116 colon = test system: HCT-116 colon
SF-539 CNS = test system: SF-539 CNS
MCF7 breast = test system: MCF7 breast
A498 renal = test system: A498 renal
T-47D breast = test system: T-47D breast
COLO 205 colon = test system: COLO 205 colon
SK-OV-3 ovarian = test system: SK-OV-3 ovarian
HCC-2998 colon = test system: HCC-2998 colon

For `Cc1ccc(CCCC(=O)O)cc1C`, the TGI (PC-3 prostate) was > 100 µM, the TGI (OVCAR-3 ovarian) was > 100 µM and the TGI (HL-60(TB) leukemia) was > 100 µM. For the same compound, the TGI (OVCAR-4 ovarian) was > 100 µM, the TGI (OVCAR-5 ovarian) was > 100 µM and the TGI (NCI/ADR-RES ovarian) was > 100 µM. The TGI (TK-10 renal) was > 100 µM, the TGI (CAKI-1 renal) was > 100 µM and the TGI (DU-145 prostate) was > 100 µM. For the same compound, the TGI (MOLT-4 leukemia) was > 100 µM, the TGI (NCI-H522 lung) was > 100 µM and the TGI (MALME-3M melanoma) was > 100 µM. The TGI (RPMI-8226 leukemia) was > 100 µM, the TGI (HOP-62 NSCLC) was > 100 µM and the TGI (SN12C renal) was > 100 µM. For the same compound, the TGI (KM12 colon) was > 100 µM, the TGI (HT29 colon) was > 100 µM and the TGI (SW-620 colon) was > 100 µM. For the same compound, the TGI (SNB-75 CNS) was > 100 µM, the TGI (SK-MEL-2 melanoma) was > 100 µM and the TGI (LOX IMVI melanoma) was > 100 µM. For the same compound, the TGI (SR leukemia) was > 100 µM, the TGI (RXF 393 renal) was > 100 µM and the TGI (CCRF-CEM leukemia) was > 100 µM. The TGI (UACC-62 melanoma) was > 100 µM, the TGI (ACHN renal) was > 100 µM and the TGI (SF-268 CNS) was > 100 µM. For the same compound, the TGI (BT-549 breast) was > 100 µM, the TGI (HCT-15 colon) was > 100 µM and the TGI (MDA-N) was > 100 µM. The TGI (OVCAR-8 ovarian) was > 100 µM, the TGI (NCI-H226 lung) was > 100 µM and the TGI (SF-295 CNS) was > 100 µM. The TGI (SK-MEL-28 melanoma) was > 100 µM, the TGI (NCI-H460 lung) was > 100 µM and the TGI (MDA-MB-435) was > 100 µM. For the same compound, the TGI (U251 CNS) was > 100 µM, the TGI (EKVX NSCLC) was > 100 µM and the TGI (UO-31 renal) was > 100 µM. For the same compound, the TGI (K-562 leukemia) was > 100 µM, the TGI (HOP-92 NSCLC) was > 100 µM and the TGI (IGROV1 ovarian) was > 100 µM. The TGI (M14 melanoma) was > 100 µM, the TGI (SK-MEL-5 melanoma) was > 100 µM and the TGI (UACC-257 melanoma) was > 100 µM. For the same compound, the TGI (NCI-H23 lung) was > 100 µM, the TGI (SNB-19 CNS) was > 100 µM and the TGI (MDA-MB-231 breast) was > 100 µM. For the same compound, the TGI (A549 NSCLC) was > 100 µM, the TGI (786-0 renal) was > 100 µM and the TGI (HCT-116 colon) was > 100 µM.

In the case of `CCCNc1c(Cl)cc(Cl)c2[nH]c3ccccc3c(=O)c12`, the TGI (PC-3 prostate) is reported as > 100 µM, the TGI (OVCAR-3 ovarian) is reported as > 100 µM and the TGI (HL-60(TB) leukemia) is reported as 47.6 µM. The TGI (SF-539 CNS) was > 100 µM, the TGI (OVCAR-4 ovarian) was > 100 µM and the TGI (OVCAR-5 ovarian) was > 100 µM. For the same compound, the TGI (NCI/ADR-RES ovarian) was > 100 µM, the TGI (TK-10 renal) was > 100 µM and the TGI (CAKI-1 renal) was > 100 µM. The TGI (MCF7 breast) was > 100 µM, the TGI (MOLT-4 leukemia) was > 100 µM and the TGI (NCI-H522 lung) was > 100 µM. The TGI (MALME-3M melanoma) was 75.3 µM, the TGI (RPMI-8226 leukemia) was > 100 µM and the TGI (HOP-62 NSCLC) was > 100 µM. The TGI (SN12C renal) was > 100 µM, the TGI (KM12 colon) was > 100 µM and the TGI (HT29 colon) was > 100 µM. The TGI (SW-620 colon) was > 100 µM, the TGI (SNB-75 CNS) was > 100 µM and the TGI (SK-MEL-2 melanoma) was > 100 µM. For the same compound, the TGI (LOX IMVI melanoma) was > 100 µM, the TGI (A498 renal) was > 100 µM and the TGI (SR leukemia) was > 100 µM. The TGI (T-47D breast) was > 100 µM, the TGI (CCRF-CEM leukemia) was > 100 µM and the TGI (UACC-62 melanoma) was > 100 µM. The TGI (ACHN renal) was > 100 µM, the TGI (BT-549 breast) was > 100 µM and the TGI (HCT-15 colon) was > 100 µM. The TGI (COLO 205 colon) was > 100 µM, the TGI (MDA-N) was > 100 µM and the TGI (SK-OV-3 ovarian) was > 100 µM. The TGI (OVCAR-8 ovarian) was > 100 µM, the TGI (NCI-H226 lung) was > 100 µM and the TGI (SF-295 CNS) was > 100 µM. The TGI (SK-MEL-28 melanoma) was > 100 µM, the TGI (MDA-MB-435) was > 100 µM and the TGI (U251 CNS) was > 100 µM. The TGI (EKVX NSCLC) was > 100 µM, the TGI (UO-31 renal) was > 100 µM and the TGI (K-562 leukemia) was > 100 µM. For the same compound, the TGI (HOP-92 NSCLC) was 35 µM, the TGI (IGROV1 ovarian) was > 100 µM and the TGI (M14 melanoma) was > 100 µM. The TGI (SK-MEL-5 melanoma) was > 100 µM, the TGI (HCC-2998 colon) was > 100 µM and the TGI (UACC-257 melanoma) was > 100 µM. For the same compound, the TGI (NCI-H23 lung) was > 100 µM, the TGI (SNB-19 CNS) was 65.7 µM and the TGI (MDA-MB-231 breast) was > 100 µM. For the same compound, the TGI (A549 NSCLC) was > 100 µM, the TGI (786-0 renal) was > 100 µM and the TGI (HCT-116 colon) was > 100 µM.

— PubChem BioAssay (NCI)
